Article PMC9143078, “An Albumin-Binding PSMA Ligand with Higher Tumor Accumulation for PET Imaging of Prostate Cancer” (Pharmaceuticals, 2022)

How the values were obtained:
[1] = In vitro stability in saline; type: physicochemical; settings: 37.0 °C, more than 48 h incubation
Protocol: (§1) The in vitro stability of ^64Cu-PSMA-CM was tested in 5% human serum albumin (HSA) and saline at 37.0 °C.
(§2) ^64Cu-PSMA-CM was incubated in saline or 5% human serum albumin (HSA) at 37 °C and the radiochemical purity was determined by radio-HPLC at different points in time (1 h, 4 h, 12 h, 24 h, and 48 h). For the stability in 5% HSA, 15 μL of mixture was taken out and precipitated by ethanol, filtered, and the supernatant was analyzed.

PSMA = molecular target: T1, PSMA (Homo sapiens, UniProt Q04609); test: Binding affinity to PSMA on 22Rv1 cells (dissociation constant); settings: 2 h at 37 °C, one-site total model
T1 construct: endogenous in cells; host or cells: 22Rv1 cells
T1 sequence (Q04609 whole entry): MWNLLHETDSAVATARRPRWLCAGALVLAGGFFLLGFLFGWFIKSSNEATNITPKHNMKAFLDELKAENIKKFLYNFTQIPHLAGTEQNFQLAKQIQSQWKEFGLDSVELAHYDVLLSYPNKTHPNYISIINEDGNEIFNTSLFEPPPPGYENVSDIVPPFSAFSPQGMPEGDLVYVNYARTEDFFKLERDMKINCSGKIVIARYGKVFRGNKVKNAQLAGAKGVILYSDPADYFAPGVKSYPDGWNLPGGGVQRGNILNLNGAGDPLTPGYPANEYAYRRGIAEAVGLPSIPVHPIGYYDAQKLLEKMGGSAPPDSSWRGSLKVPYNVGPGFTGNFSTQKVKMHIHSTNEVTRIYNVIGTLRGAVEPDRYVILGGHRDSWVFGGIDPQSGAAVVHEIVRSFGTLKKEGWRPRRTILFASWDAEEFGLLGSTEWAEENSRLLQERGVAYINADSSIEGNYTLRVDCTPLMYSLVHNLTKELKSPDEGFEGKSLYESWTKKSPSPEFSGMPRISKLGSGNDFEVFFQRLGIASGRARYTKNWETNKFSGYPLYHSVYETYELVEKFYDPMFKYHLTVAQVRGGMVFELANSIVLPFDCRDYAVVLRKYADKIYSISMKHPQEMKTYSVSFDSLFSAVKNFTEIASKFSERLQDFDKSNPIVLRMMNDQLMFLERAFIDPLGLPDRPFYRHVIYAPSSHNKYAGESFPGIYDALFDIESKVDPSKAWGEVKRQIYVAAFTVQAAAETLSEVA
Protocol: The dissociation constant of ^64Cu-PSMA-CM was performed on 22Rv1 cells by adding different concentrations of ^64Cu-PSMA-CM (0.185–74 kBq/mL, 400 μL/well, 4 well/group) to the 24-well plate (2 × 10^5 cells/well). After incubation for 2 h at 37 °C, the medium was removed, the cells were washed twice with cold PBS and then lysed by 0.5 mL NaOH. The radioactivity of NaOH solution was measured and the dissociation constant was calculated using the one-site total model in Graph Pad software (Graph Pad prism 5). Similarly, the dissociation constant of ^64Cu-PSMA-CM was determined with the same protocol.

PSMA (−) PC-3 cells = test: Cell uptake in PC-3 cells; type: cell-based, human
Protocol: (§3) The 22Rv1 and PC-3 cell lines were plated on 24-well plates (2 × 10^5 cells/well). After incubating for 24 h, the medium was removed and washed with PBS (phosphate buffer saline, 0.01 M). Then, 500 μL medium with 74 KBq of ^64Cu-PSMA-CM was added to the well plates and co-incubated with cells at 37 °C for 10 min, 30 min, 60 min, and 120 min. The medium was then removed and the cells were washed twice with 1 mL of cold PBS. After that, cells were lysed with 1M NaOH, and then the NaOH solution was collected for analysis. For the blocking experiment, cells were co-incubated with ZJ-43 (1 µg/well), a PSMA inhibitor, for 120 min. Five samples of ^64Cu-PSMA-CM were taken out and were thought to be standard. The result was expressed as %IA/10^6 cells. For comparison, the cell uptake experiment of ^64Cu-PSMA-BCH in 22Rv1 cells was performed.

[2] = Pharmacokinetics in blood; type: in vivo, mice
Protocol: The pharmacokinetics profile of ^64Cu-PSMA-CM in blood circulation was tested by injecting 3.7 MBq of ^64Cu-PSMA-CM into Balb/c male mice (n = 4).
An amount of 3.7 MBq (250 μL) of ^64Cu-PSMA-CM was intravenously injected into Babl/c male mice (n = 4). Blood was collected from the ophthalmic artery at different time points, then the radioactivity of blood was weighed and measured by a γ-counter. An injection of 2.5 μL was taken out as standard. The results were expressed as the percentage of injected dose per gram (%ID/g).
A two-phase decay Equation (1) in Graph Pad software (Graph Pad prism 5) was used to serve as the two-compartment model which models biological process of the probe by fitting the ID%/g versus to time of ^64Cu-PMA-CM to describe blood pharmacokinetics. Ct = Ae^−αt + Be^−βt(1) where A and B are relevant constants, and α and β are rate constants which were used to calculate as ln(2)/α and ln(2)/β for the half-life of distribution phase and elimination phase, respectively.

[3] = system: mice bearing 22Rv1 tumors; test: Biodistribution in 22Rv1 tumor model mice; type: in vivo; settings: for Biodistribution, Liver / Biodistribution, Spleen / Biodistribution, Blood / Biodistribution, Brain / Biodistribution, Heart / Biodistribution, Kidney / Biodistribution, LI (large intestine) / Biodistribution, Lung / Biodistribution, Muscle / Biodistribution, tumor: 22Rv1 male mice
Protocol: Twelve 22Rv1 tumor model mice were randomly divided into four groups and then ^64Cu-PSMA-CM (200 μL, 0.74 MBq/mouse) was injected via tail vein. […] Organs of interest including blood, heart, liver, spleen, lung, kidney, small intestine, large intestine, muscle, brain, and 22Rv1 tumor were collected. The organs were then weighed and measured for their radioactivity. Five samples of the 1% injection volume were taken out as a standard. The final uptake values of each organ were expressed as the percentage of injected dose per gram (%ID/g).

[4] = Partition coefficient (octanol/PBS); type: physicochemical; settings: octanol / PBS (0.1 M, pH 7.4)
Protocol: Amounts of 10 μL of ^64Cu-PSMA-CM in saline (0.37 MBq), 990 μL of phosphate-buffered saline (PBS, 0.1 M, pH 7.4), and 1mL of octanol were mixed in a tube. The mixture was vortexed for 3 min and centrifuged (3000 rpm × 5 min). Then, five samples (100 μL) from each phase were removed and the radioactivity was measured. The experiment was repeated three times. The partition coefficient value was calculated as below: P = (average of counts in octanol/average of counts in PBS), the value was expressed as log P ± SD.

PSMA (+) 22Rv1 cells = test: Cell uptake in 22Rv1 cells; type: cell-based, human; settings: 120 min
Protocol: as §3

[5] = system: mice bearing 22Rv1 tumors; test: Micro-PET imaging in mice bearing 22Rv1 xenograft tumors; type: in vivo
Protocol: An amount of 200 μL of ^64Cu-PSMA-CM (9.32 MBq) was injected into mice bearing 22Rv1 xenograft tumors via tail vein. For blocking, the mice were co-injected with 50 μg of ZJ-43. Imaging was performed on Super Nova PET/CT (PINGSENG, Shanghai, China). The mice were anaesthetized with 3% (v/v) isoflurane, then fixed on the bed at 4 h, 8 h, 12 h, 24 h, and 48 h p.i. Micro-PET scans were conducted with continuous 1% (v/v) isoflurane for 15 min. The images of ^64Cu-PSMA-CM were obtained at different time points and SUV mean values of regions of interest (ROIs) over the heart, kidney, muscle, liver, and tumor were collected. The ratio of tumor-to-non-target organs was then calculated at different time points. To better assess its […] in vivo, a comparison with ^64Cu-PSMA-BCH (5.55 MBq/mouse) of micro-PET imaging was performed in mice bearing 22Rv1 tumor models at 4 h p.i., 12 h p.i., and 24 h p.i. The mean standardized uptake value (SUVmean) in each organ was calculated according to following Formula (2). SUV = Activity VOI (MBq/mL)/Injected dose (MBq) × Body weight (g)(2)

[6] = In vitro stability in 5% human serum albumin; type: in vitro ADME; settings: 37.0 °C, more than 48 h incubation
Protocol: as §1, §2

[7] = blood activity–time profile, in Figure 5
[8] = blood activity–time profile, in Figure 5, in h
[9] = blood, mice, 3.7 MBq i.v., two-phase decay fit

For `O=C([O-])CN1CCN(CC(=O)[O-])CCN(CC(=O)NC(CNC(CC(=O)NC[C@H]2CC[C@H](C(=O)N[C@H](Cc3ccc4ccccc4c3)C(=O)NCCCC[C@H](NC(=O)N[C@@H](CCC(=O)O)C(=O)O)C(=O)O)CC2)C(=O)NCCOCCOCCNC(=O)CCN2C(=O)C=CC2=O)Cc2ccccc2)CC1.[64Cu+2]` (stereo partly drawn) [^64Cu-PSMA-CM], the “radiochemical purity (RCP) after incubation in saline” value [1] was “over 95%”, the Kd (PSMA) was 4.58 nM and the “uptake in PSMA (−) PC-3 cells” value (PSMA (−) PC-3 cells; 120 min) was 1.79 ± 0.20 IA%/10^6 cells. The “blocking of uptake in PC-3 cells by excess of ZJ-43” value (PSMA (−) PC-3 cells; p > 0.05) was “cannot be blocked”, the KFast [2, 7] was 4.287 and the KSlow [2, 7] was 0.1765. For the same compound, the “Half Life (Fast)” value [2, 8] was 0.1617, the “Half Life (Slow)” value [2, 8] was 3.927 and the “half-life of the distribution phase” value [2, 9] was 9.6 min. For the same compound, the “half-life of the elimination phase” value [2, 9] was 3.93 h, the “highest uptake in 22Rv1 tumor” value ([3]; 22Rv1-beared male mice, 24 h p.i.) was 14.29 ± 1.44 %ID/g and the uptake in kidneys ([3]; 22Rv1-beared male mice, within 1 h) was 95.84 ± 3.33 %ID/g. The “Biodistribution, Liver” value [3] was 8.50±1.06 ID%/g, the “Biodistribution, Spleen” value [3] was 2.65±0.55 ID%/g and the “Biodistribution, Blood” value ([3]; 1 h) was 16.95 ± 3.05 ID%/g. The “Biodistribution, Brain” value ([3]; 1 h) was 0.69±0.07 ID%/g, the “Biodistribution, Heart” value ([3]; 1 h) was 4.49±0.47 ID%/g and the “Biodistribution, Kidney” value ([3]; 1 h) was 95.84±3.33 ID%/g. For the same compound, the “Biodistribution, LI (large intestine)” value ([3]; 1 h) was 3.75±0.11 ID%/g, the “Biodistribution, Liver” value ([3]; 1 h) was 5.34 ± 1.13 ID%/g and the “Biodistribution, Lung” value ([3]; 1 h) was 9.91±0.43 ID%/g. The “Biodistribution, Muscle” value ([3]; 1 h) was 1.15±0.09 ID%/g, the “Biodistribution, Spleen” value ([3]; 1 h) was 8.48±3.35 ID%/g and the “Biodistribution, tumor” value ([3]; 1 h) was 8.09±1.66 ID%/g. The “Biodistribution, Blood” value ([3]; 6 h) was 12.33±2.83 ID%/g, the “Biodistribution, Brain” value ([3]; 6 h) was 0.47±0.05 ID%/g and the “Biodistribution, Heart” value ([3]; 6 h) was 4.16±0.62 ID%/g. For the same compound, the “Biodistribution, Kidney” value ([3]; 6 h) was 26.78±0.69 ID%/g, the “Biodistribution, LI (large intestine)” value ([3]; 6 h) was 2.85±0.06 ID%/g and the “Biodistribution, Liver” value ([3]; 6 h) was 5.24±0.59 ID%/g. For the same compound, the “Biodistribution, Lung” value ([3]; 6 h) was 8.47±1.45 ID%/g, the “Biodistribution, Muscle” value ([3]; 6 h) was 1.22±0.25 ID%/g and the “Biodistribution, Spleen” value ([3]; 6 h) was 4.63±1.13 ID%/g. The “Biodistribution, tumor” value ([3]; 6 h) was 8.51±1.99 ID%/g, the “Biodistribution, Blood” value ([3]; 12 h) was 5.41±0.94 ID%/g and the “Biodistribution, Brain” value ([3]; 12 h) was 0.44±0.06 ID%/g. For the same compound, the “Biodistribution, Heart” value ([3]; 12 h) was 1.96±0.35 ID%/g, the “Biodistribution, Kidney” value ([3]; 12 h) was 14.19±1.40 ID%/g and the “Biodistribution, LI (large intestine)” value ([3]; 12 h) was 4.32±0.69 ID%/g. The “Biodistribution, Lung” value ([3]; 12 h) was 6.28±0.72 ID%/g, the “Biodistribution, Muscle” value ([3]; 12 h) was 1.24±0.77 ID%/g and the “Biodistribution, tumor” value ([3]; 12 h) was 14.29±1.44 ID%/g. The “Biodistribution, Blood” value ([3]; 24 h) was 2.83±0.41 ID%/g, the “Biodistribution, Heart” value ([3]; 24 h) was 0.95±0.21 ID%/g and the “Biodistribution, Kidney” value ([3]; 24 h) was 8.92±0.41 ID%/g. For the same compound, the “Biodistribution, LI (large intestine)” value ([3]; 24 h) was 2.81±0.35 ID%/g, the “Biodistribution, Liver” value ([3]; 24 h) was 6.14±0.23 ID%/g and the “Biodistribution, Lung” value ([3]; 24 h) was 5.60±0.23 ID%/g. For the same compound, the “Biodistribution, Spleen” value ([3]; 24 h) was 2.31±0.26 ID%/g, the “Biodistribution, tumor” value ([3]; 24 h) was 10.57±1.23 ID%/g and the “log P” value [4] was −2.25 ± 0.05. For the same compound, the “highest uptake value in PSMA (+) 22Rv1 cells” value (PSMA (+) 22Rv1 cells) was 5.45 ± 0.42 IA%/10^6 cells, the “uptake in 22Rv1 cells” value (PSMA (+) 22Rv1 cells) was 5.45 ± 0.42 %IA/10^6 cells and the “uptake in 22Rv1 cells blocked by ZJ-43” value (PSMA (+) 22Rv1 cells; co-incubated with ZJ-43 (1 µg/well)) was 3.38 ± 0.04 IA%/10^6 cells. The “SUV mean value in 22Rv1 tumor (highest accumulation)” value ([5]; 24 h p.i.) was 1.88 ± 0.04, the “uptake in tumors and kidneys when co-injected with excess ZJ-43” value ([5]; ZJ-43 50 μg, p < 0.001) was “significantly decreased” and the “radiochemical purity (RCP) after incubation in 5% HSA” value [6] was “over 95%”.
